Source: patent publication US7094760B2, “Peptides for treatment of inflammation and shock” (Salpep Biotechnology, Inc., priority 1996, dated 2006)

Key:
[1] = tested on: ovalbumin-sensitized Hooded-Listar rats; assay: anaphylactic perturbation of intestinal motility, Example 9; type: in vivo, rat; details: intravenously at 100 μg/kg, 20 min before challenge
Experimental: Animals and Tissue Preparation: Male Hooded-Listar rats were sensitized to egg albumin (ovalbumin; OA). Two weeks after sensitization, the animals had electrodes implanted into the muscle of the jejunum for recording muscle electrical activity. One week later, the fasted rats received SGP-T or an analogue, either intravenously (injection via penile vein under halothane anaesthesia) or orally (via gastric tube), 20 min before challenge with OA, or bovine serum albumin as control, by intragastric administration.
The disruption of intestinal migrating myoelectric complexes (MMCs) (Scott et al., (1988), J. Physiol., v. 255, pp. G505–511), a measure of intestinal activity, and the presence of diarrhea were used as biological measurements of anaphylaxis.

[2] = tested on: rats sensitized to hen egg albumin; assay: intestinal anaphylaxis (diarrhoea, disrupted MMCs), egg albumin-sensitized rats, Example 3; type: in vivo, rat; details: intravenously
Source text: SGP-T was also effective in preventing intestinal anaphylaxis.

[3] = tested on: endotoxin-induced fever in rats; assay: endotoxin-induced fever, Example 12; type: in vivo, rat; details: late phase (180–420 minutes); injected immediately before ip 150 μg/kg LPS
Experimental: Rats were operated on to remove salivary glands (or controls were sham-operated) one week before challenge with endotoxin. At the time of operation, a temperature sensitive radio transmitter was inserted in the peritoneal cavity. One week after operation, baseline temperatures were recorded by telemetry and SGP-T or saline was injected immediately before intra-peritoneal injection of 150 μg/kg LPS. Temperature was followed for 12 hours. SGP-T suppressed a late phase (180–420 minutes) of endotoxin-induced fever.

[4] = tested on: neutrophils from carrageenin-soaked sponges; assay: superoxide production by neutrophils from carrageenin-soaked sponges of treated rats; type: in vivo, rat; details: intravenous SGP-T 4 hr. before implantation of the sponge
Experimental: Under halothane anaesthesia the sponge was removed from its subcutaneous site and the fluid was squeezed from it into a test tube. Following centrifugation at 2,000 g for 10 min, the exudate was decanted and the remaining cells were suspended in 4 ml of 0.9% saline, and their number determined using a Coulter Counter. One ml of the remaining cell suspension was extracted for use in the superoxide assay.
Neutrophils (10^6) were suspended in PBS buffer of the following composition: NaCl 137 mM, KCl 2.7 mM, Na2HPO4, 8.1 mM, KH2PO4 1.47 mM, CaCl2 1.19 mM, MgCl2 0.54 mM, glucose 7.5 mM and cytochrome C 1.5 mM (Sigma Chemical Co. St. Louis, […].) incubated at 37 C. Each sample was read along with a reference sample containing 1440 units of superoxide dismutase (Sigma) in a spectrophotometer (Hitachi, U200 spectrophotometer). The rate of superoxide production in response to 10^−7M phorbol myristate acetate (PMA) or 10^−5 M N-formyl-methionyl-leucyl-phenylalanine (fMLP) was then inferred from the slope. […]
Intravenous injections of SGP-T inhibited neutrophil influx into a carrageenin-soaked sponge in a dose-dependent manner (FIG. 4). When the ability of neutrophils obtained from the carrageenin-soaked sponges to generate superoxide anion was evaluated, those obtained from saline-treated rats were totally refractory to f MLP and phorbol myristate acetate (PMA).

[5] = tested on: isolated jejunal segments from egg albumin-sensitised rats; assay: antigen-induced contraction of isolated jejunal segments, Examples 3 and 6; design: species or system rat
Experimental: SGP-T, at doses as low as 6.8×10^−7M, reduced antigen induced contractions of these isolated intestinal tissues by 60% (data not shown).
Analogues and fragments of SGP-T were tested for their ability to inhibit antigen (egg albumin)-induced intestinal contractions, using isolated jejunal segments from egg albumin-sensitised rats, as described in Example 3.

[6] = tested on: ovalbumin-sensitized Sprague-Dawley rats; assay: anaphylactic hypotension (VPSP), ovalbumin-sensitized rats, Example 8; type: in vivo, rat; details: intravenous, 100 μg/kg, 10 min prior to antigen
Experimental: Animals and Tissue Preparation: Male Sprague-Dawley rats were sensitized to egg albumin (ovalbumin; OA) with 50 ng of Pertussin bortella toxin as an adjuvant. Four to six weeks after sensitization, the rats were anesthetized with sodium pentobarbital. A tracheal tube was inserted and a cannula was inserted into the left ventricle for measuring ventricular peak systolic pressure (VPSP). This cannula was coupled to a blood pressure transducer. A cannula was also inserted into the jugular view for administration of peptide (100 μg/kg) and antigen (100 μg of OA). The peptides were injected intravenously 10 min prior to antigen injection and blood pressure was recorded for 30 min.
In a second study, the peptide feG (D-phenylalanine, D-glutamate, glycine) was administered orally by a stomach tube 1 hour prior to intravenous injection of the sensitizing antigen.
Data Analysis: The percent changes in VSPS induced by anaphyalctic reaction were calculated relative to baseline VPSP. Significance differences within groups were determined with one-way analysis of variance (ANOVA), and between groups with the Student t-test.

[7] = tested on: human neutrophils; assay: superoxide anion production in vitro, human neutrophils; type: cell-based; details: for superoxide anion production: 10^−7M PMA
Experimental: (§1) Neutrophils (10^6) were suspended in PBS buffer of the following composition: NaCl 137 mM, KCl 2.7 mM, Na2HPO4, 8.1 mM, KH2PO4 1.47 mM, CaCl2 1.19 mM, MgCl2 0.54 mM, glucose 7.5 mM and cytochrome C 1.5 mM (Sigma Chemical Co. St. Louis, […].) incubated at 37 C. Each sample was read along with a reference sample containing 1440 units of superoxide dismutase (Sigma) in a spectrophotometer (Hitachi, U200 spectrophotometer). The rate of superoxide production in response to 10^−7M phorbol myristate acetate (PMA) or 10^−5 M N-formyl-methionyl-leucyl-phenylalanine (fMLP) was then inferred from the slope. (Derian et al., (1996), Biochemistry 35(4): 1265–9).
(§2) Neutrophils obtained either from carrageenin-soaked sponges implanted subcutaneously in rats, or from the blood of healthy human volunteers, were preincubated with various doses of SGP-T for 30 minutes, then stimulated with 10^−7M PMA and the rate of superoxide anion production determined. At doses less than 1 μM, SGP-T inhibited superoxide anion production by both rat and human neutrophils, although the rat neutrophils were approximately 10-fold less sensitive than human neutrophils to this inhibitor effect (FIG. 6). At higher doses of the peptide(>1 μM), an enhancement of superoxide anion production was evident with human neutrophils.
(§3) At 0.001 and 0.01 μM SGP-T, O2^− production was inhibited by 15 to 20% in human neutrophils, while 10-fold higher concentrations were required for such inhibition with rat neutrophils. Much higher concentrations of SGP-T (10 and 20 μM) stimulated O2^− production by human neutrophils. Each value is presented as the mean ±SEM, and the number of experiments was between 6 and 12.

[8] = tested on: rat neutrophils; assay: superoxide anion production in vitro, rat neutrophils; type: cell-based
Experimental: as §1, §2, §3

For “NH2-Thr-Asp-Ile-Phe-Glu-Gly-Gly-COOH (H-TDIFEGG-OH) [SGP-T, submandibular gland peptide T, TDIFEGG]”, the “intestinal anaphylaxis induced by OA” value [1] was “prevented or reduced”, the manifestation of anaphylaxis ([2]; 100 μg/kg) was “totally prevented” and the “anaphylactic reactions (diarrhoea, disruption of MMCs)” value ([2]; doses as low as 10 μg/kg) was “significantly attenuated”. For the same substance, the endotoxin-induced fever [3] was “suppressed”, the “superoxide generation in response to fMLP and PMA by sponge neutrophils” value [4] was “able to generate substantial amounts of superoxide” and the “Biological Activity = inhibition of antigen-induced jejunal contraction by test peptide” value [5] was “+++ (+++ = highest inhibition (~60%))”. For the same substance, the “reduction of antigen induced contractions of isolated intestinal tissues” value ([5]; doses as low as 6.8×10^−7M) was 60%, the “anaphylactic hypotension (VPSP)” value [6] was “significantly inhibited” and the “O2− production” value ([7]; 10 and 20 μM) was “stimulated”. The superoxide anion production ([7]; doses less than 1 μM) was “inhibited”, the superoxide anion production ([7]; higher doses (>1 μM)) was “enhancement” and the superoxide anion production ([8]; doses less than 1 μM, 10^−7M PMA) was “inhibited”. The “sensitivity of rat neutrophils relative to human neutrophils (less sensitive)” value ([8]; inhibition of superoxide anion production) was “approximately 10 fold” and the “higher concentrations required for 15 to 20% inhibition versus human neutrophils” value ([8]; relative to 0.001 and 0.01 μM in human neutrophils) was 10 fold.
